This is an account of results in patent EP0197664A2, “2-Aminopyrimidinone derivatives” (SMITH KLINE & FRENCH LABORATORIES LIMITED, priority 1985, dated 1986).

Experiment [1] concerns right ventricle strips. In words: Cardiac stimulant activity in vitro (force of contraction of electrically stimulated ventricular strips). It counts as cell-based, Guinea pigs. The settings on record: Cavia porcellus, read-out: EC50 (50% increase in the force of contraction of the ventricular strips); guinea pig right ventricular strips, 1.0 Hz stimulation, Krebs Henseleit solution at 37°C, cumulative concentration response.
Method: The compounds of formula (I) and their pharmaceutically acceptable salts are tested for cardiac stimulant activity following a procedure based on that of S.C. […] Guinea pigs (500-700 g) of either sex are sacrificed and the hearts are quickly removed and transferred to a dissecting dish containing oxygenated bathing fluid. While in the bathing medium, the right ventricle is cut into two strips. The strips are each suspended in a 50 ml bath containing Krebs Henseleit solution at 37°C, and the bath is bubbled with 95% oxygen and 5% carbon dioxide. The ventricular strips are electrically stimulated at a frequency of 1.0 Hz, at double the threshold voltage. A resting tension of 1.0 g is applied to the strips and the tension is kept constant by readjustment during an equilibration period of 60 minutes. The bathing fluid is frequently changed during this period. When a steady base line is obtained, a compound under test is added to the bathing fluid and a cumulative concentration response curve is plotted.

Experiment [2] concerns anaesthetised cats. Nature of the experiment: Cardiac stimulant activity in vivo (anaesthetised cats, left ventricular dp/dt max). Conditions: Felis catus, read-out: ED50 (dose to increase left ventricular dp/dt max by 50%); anaesthetised cats pretreated with pempidine and propranolol, intravenous. The source says:
The dose to increase left ventricular dp/dt max by 50% is given as the EDso.

SMILES strings stand for the structures.

Turning to `Nc1cc(-c2ccncc2)c[nH]c1=O` [Amrinone, reference compound], the EC50 in experiment [1] stood at 15 µM. The ED50 in experiment [2] was 5.6 µmol/kg. As to `Cc1c[nH]c(Nc2ccc(C3=NNC(=O)CC3C)cc2)nc1=O` (centres unmarked) [Example 3, 6-[4-(1,4-Dihydro-5-methyl-4-oxo-2-pyrimidinylamino)phenyl]-5-methyl-4,5-dihydro-3-(2H)-pyridazinone], the ED50 in experiment [2] is 3.03 µmol/kg. Still for that read-out and setting: under `CC1CC(=O)NN=C1c1ccc(Nc2nc(=O)cc[nH]2)cc1` (centres unmarked) [Example 1, 6-[4-(1,4-Dihydro-4-oxo-2-pyrimidinylamino)phenyl]-5-methyl-4,5-dihydro-3(2H)-pyridazinone] stands 0.06 µmol/kg. Same read-out and setting: as for `CC1CC(=O)NN=C1c1ccc(Nc2nc(=O)c3ccccc3[nH]2)cc1` (centres unmarked) [Example 4, 6-[4-(1,4-Dihydro-4-oxo-2-quinazolinyiamino)-phenyl]-5-methyl-4,5-dihydro-3(2H)-pyridazinone], the figure is 0.41 µmol/kg.
